One may read the IC50 as the concentration that inhibits the measured activity by half.

The source of these data is PMC10764862, “Structural basis and selectivity of sulfatinib binding to FGFR and CSF-1R” (Communications Chemistry, 2024).

SMILES strings stand for the structures. Positions count from the first letter of the chain named. Where two headings read alike, the source gives them in different places.

The subject of assay [1] is FGFR3. Details: method as in PMID 28665128. The following applies: cited from earlier work.
For assay [2], the system named is CSF-1R. Details: method as in PMID 28665128. The following applies: cited from earlier work.
Assay [3] has as its system FGFR4. Details: method as in PMID 28665128. The following applies: cited from earlier work.
Assay [4] addresses T1, CSF-1R^T663I (Homo sapiens, UniProt P07333, C667T/C830S/C907T/DEL696-741/T663I).
T1 sequence (P07333 with tags, fused parts or gaps T663I/C667T/DEL696-741/C830S/C907T): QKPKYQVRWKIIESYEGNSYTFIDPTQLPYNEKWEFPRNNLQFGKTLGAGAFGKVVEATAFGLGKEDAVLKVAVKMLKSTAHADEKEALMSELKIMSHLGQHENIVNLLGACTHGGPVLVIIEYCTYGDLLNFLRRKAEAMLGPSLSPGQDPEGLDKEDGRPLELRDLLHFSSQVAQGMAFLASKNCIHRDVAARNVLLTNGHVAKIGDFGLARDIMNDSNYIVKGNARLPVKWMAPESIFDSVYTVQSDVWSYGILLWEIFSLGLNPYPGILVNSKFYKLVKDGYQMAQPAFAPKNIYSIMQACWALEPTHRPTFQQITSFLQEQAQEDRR
The assay can be described thus: Kinase inhibition assay (ADP-Glo), CSF-1R T663I gatekeeper mutant. Type of assay: biochemical. The following applies: read-out: Kinase inhibitory activity CSF-1R^T663I IC50. On the procedure: (§1) Wild-type CSF-1R (residues 542–919, △696–741, C677T, C830S, C907T) and CSF-1R^T663I carrying an N-terminal 6×His tag was cloned into a pFastBac expression vector, and was expressed in SF9 cells using the Invitrogen Bac-to-Bac Baculovirus Expression System[41]. For crystallization, CSF-1R was co-expressed with N-terminal GST-tagged YOPH to induce non-phosphorylated proteins. The harvested cell pellets were lysed by sonication in lysis buffer consisting of 40 mM K-phosphate, pH 8.0, 200 mM NaCl, 0.5 mM PMSF, and protease inhibitor mixture (EDTA-free, Roche). After centrifugation, the clarified cell lysate was supplemented with 20 mM imidazole, and incubated with Ni-NTA beads (GE Healthcare). The Ni-NTA bead-bound CSF-1R protein was eluted using 25 mM HEPES, pH 7.0, 150 mM NaCl and 200 mM imidazole, and was subsequently supplemented with 10 mM DTT after elution. […]
(§2) The inhibition by sulfatinib was determined by the measurement of kinase activities following the ADP-Glo assay kit (Promega)[6],[44],[45]. […] Following the addition of detection reagent to convert the generated ADP to ATP, the luminescence was detected by a plate reader (Perkin Elmer). Samples were run in triplicate and the IC50 values were calculated by log[Inhibitor] versus kinase activity ratio in GraphPad Prism 8.0.
In general terms: ADP-Glo turns the ADP formed in a reaction into a luminescent signal.

The target in assay [5] is T2, FGFR2^V564F (Homo sapiens, UniProt P21802, V564F).
T2 construct: FGFR2 (residues 458–768); 6×His (PreScission-cleavable) (N, cleaved yes); made in house; host or cells: E. coli BL21 Rosetta
T2 sequence (P21802 458-768 V564F): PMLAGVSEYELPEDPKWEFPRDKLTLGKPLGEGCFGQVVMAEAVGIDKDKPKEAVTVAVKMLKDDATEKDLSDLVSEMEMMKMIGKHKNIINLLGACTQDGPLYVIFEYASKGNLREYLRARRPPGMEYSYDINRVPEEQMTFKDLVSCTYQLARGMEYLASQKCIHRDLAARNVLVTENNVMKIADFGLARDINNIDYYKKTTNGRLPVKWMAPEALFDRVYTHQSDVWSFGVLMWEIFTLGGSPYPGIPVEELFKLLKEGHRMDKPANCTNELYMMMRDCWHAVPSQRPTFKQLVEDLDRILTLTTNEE
Briefly: Kinase inhibition assay (ADP-Glo), FGFR2 V564F gatekeeper mutant. It is filed as biochemical. On the procedure: (§3) FGFRs were prepared as previously described[6],[34],[44],[45]. Briefly, FGFR1 (residues 458–765), FGFR2 (residues 458–768), FGFR3 (residues 450–758) as well as FGFR4 (residues 445–753), and their mutants, FGFR1^C584S, FGFR1^V561M, FGFR2^V564I, FGFR2^V564F and FGFR3^V555M, were cloned into a modified pET28a vector in frame with an N-terminal PreScission-cleavable 6×His tag and expressed in E. coli BL21 Rosetta cells. For crystallization, FGFR1^C584S was co-expressed with untagged YOPH to induce non-phosphorylated proteins. The harvested cell pellets were lysed in a buffer containing 20 mM Tris-HCl, pH 8.0, 500 mM NaCl, 20 mM imidazole and 0.5 mM TCEP, and FGFRs were purified over Ni-NTA resin followed by enzymatic digestion with PreScission for 6×His-tag cleavage and further purified by anion exchange chromatography (GE Healthcare). For crystallization, FGFR1^C584S was further purified by gel filtration chromatography (GE Healthcare). […]
as §2

Assay [6] addresses T3, FGFR3^V555M (Homo sapiens, UniProt P22607, V555M).
T3 construct: FGFR3 (residues 450–758); 6×His (PreScission-cleavable) (N, cleaved yes); made in house; host or cells: E. coli BL21 Rosetta
Briefly: Kinase inhibition assay (ADP-Glo), FGFR3 V555M gatekeeper mutant. Type of assay: biochemical. On the procedure:
as §3, §2

Assay [7] has as its target T4, FGFR4 (Homo sapiens, UniProt P22455).
T4 construct: FGFR4 (residues 445–753); 6×His (PreScission-cleavable) (N, cleaved yes); made in house; host or cells: E. coli BL21 Rosetta
The assay can be described thus: Kinase inhibition assay (ADP-Glo), FGFR4. Type of assay: biochemical. On the procedure:
as §3, §2

The target of assay [8] is T5, FGFR1^V561M (Homo sapiens, UniProt P11362, V561M).
T5 construct: FGFR1 (residues 458–765); 6×His (PreScission-cleavable) (N, cleaved yes); made in house; host or cells: E. coli BL21 Rosetta
T5 sequence (P11362 458-765 V561M): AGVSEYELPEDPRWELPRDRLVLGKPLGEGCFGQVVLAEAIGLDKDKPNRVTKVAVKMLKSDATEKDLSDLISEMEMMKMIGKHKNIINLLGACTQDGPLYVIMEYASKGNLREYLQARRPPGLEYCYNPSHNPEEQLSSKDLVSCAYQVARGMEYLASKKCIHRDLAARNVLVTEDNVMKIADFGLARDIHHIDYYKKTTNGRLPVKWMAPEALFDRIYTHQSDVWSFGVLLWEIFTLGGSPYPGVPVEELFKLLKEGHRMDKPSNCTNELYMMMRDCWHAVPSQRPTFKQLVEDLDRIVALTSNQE
The assay can be described thus: Kinase inhibition assay (ADP-Glo), FGFR1 V561M gatekeeper mutant. It is filed as biochemical. The protocol: as §3, §2

Assay [9] addresses T6, FGFR3 (Homo sapiens, UniProt P22607).
T6 construct: FGFR3 (residues 450–758); 6×His (PreScission-cleavable) (N, cleaved yes); made in house; host or cells: E. coli BL21 Rosetta
Briefly: Kinase inhibition assay (ADP-Glo), FGFR3. It is filed as biochemical. The settings on record: wild-type kinase domain. On the procedure: as §3, §2

Assay [10] has as its target T7, FGFR2^V564I (Homo sapiens, UniProt P21802, V564I).
T7 construct: FGFR2 (residues 458–768); 6×His (PreScission-cleavable) (N, cleaved yes); made in house; host or cells: E. coli BL21 Rosetta
The assay can be described thus: Kinase inhibition assay (ADP-Glo), FGFR2 V564I gatekeeper mutant. Type of assay: biochemical. The protocol: as §3, §2

For assay [11], the target named is T8, CSF-1R (Homo sapiens, UniProt P07333, C667T/C830S/C907T/DEL696-741).
T8 construct: Wild-type CSF-1R (residues 542–919, △696–741, C677T, C830S, C907T); 6×His (N); made in house; host or cells: SF9 insect cells (baculovirus)
T8 sequence (P07333 with tags, fused parts or gaps C667T/DEL696-741/C830S/C907T): T1 sequence (P07333 with tags, fused parts or gaps T663I/C667T/DEL696-741/C830S/C907T) with I122T
The assay can be described thus: Kinase inhibition assay (ADP-Glo), CSF-1R. Type of assay: biochemical. The following applies: wild-type kinase domain. The protocol:
as §1, §2

The target of assay [12] is T9, FGFR1 (Homo sapiens, UniProt P11362).
T9 construct: FGFR1 (residues 458–765); 6×His (PreScission-cleavable) (N, cleaved yes); made in house; host or cells: E. coli BL21 Rosetta
T9 sequence (P11362 458-765): as the sequence (P11362 458-765 V561M) above, with M104V counted along it
The assay can be described thus: Kinase inhibition assay (ADP-Glo), FGFR1. It is filed as biochemical. The following applies: wild-type kinase domain. The protocol:
as §3, §2

Assay [13] has as its target T10, FGFR2 (Homo sapiens, UniProt P21802).
T10 construct: FGFR2 (residues 458–768); 6×His (PreScission-cleavable) (N, cleaved yes); made in house; host or cells: E. coli BL21 Rosetta
The assay can be described thus: Kinase inhibition assay (ADP-Glo), FGFR2. Type of assay: biochemical. The following applies: wild-type kinase domain. The protocol:
as §3, §2

T3 sequence (P22607 450-758 V555M): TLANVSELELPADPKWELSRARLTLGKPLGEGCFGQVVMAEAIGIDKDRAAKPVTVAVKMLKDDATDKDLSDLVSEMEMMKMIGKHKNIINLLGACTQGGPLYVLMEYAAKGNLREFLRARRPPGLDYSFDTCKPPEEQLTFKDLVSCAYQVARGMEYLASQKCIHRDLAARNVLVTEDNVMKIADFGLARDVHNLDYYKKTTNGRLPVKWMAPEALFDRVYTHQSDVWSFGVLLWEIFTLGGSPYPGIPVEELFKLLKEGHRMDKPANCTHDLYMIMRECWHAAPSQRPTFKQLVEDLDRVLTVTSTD
T4 sequence (P22455 445-753): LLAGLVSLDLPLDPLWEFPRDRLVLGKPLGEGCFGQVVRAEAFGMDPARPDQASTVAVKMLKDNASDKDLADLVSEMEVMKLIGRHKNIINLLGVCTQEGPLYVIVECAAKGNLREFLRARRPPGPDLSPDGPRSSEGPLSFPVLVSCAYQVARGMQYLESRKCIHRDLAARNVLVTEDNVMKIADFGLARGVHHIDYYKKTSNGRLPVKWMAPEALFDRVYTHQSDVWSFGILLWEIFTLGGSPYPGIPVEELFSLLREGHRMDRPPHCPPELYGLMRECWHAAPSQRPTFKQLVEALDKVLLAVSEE
T7 sequence (P21802 458-768 V564I): as the sequence (P21802 458-768 V564F) above, with F107I counted along it
T6 sequence (P22607 450-758): as the sequence (P22607 450-758 V555M) above, with M106V counted along it
T10 sequence (P21802 458-768): as the sequence (P21802 458-768 V564F) above, with F107V counted along it

Turning to `C=CC(=O)N1CCN(CCCn2c(=O)c(-c3c(Cl)c(OC)cc(OC)c3Cl)cc3cnc(NC)nc32)CC1` [PRN1371, 8-(3-(4-Acryloylpiperazin-1-yl)propyl)-6-(2,6-dichloro-3,5-dimethoxyphenyl)-2-(methylamino)pyrido[2,3-d]pyrimidin-7(8H)-one], the IC50 is […] in [1], 8.1 nM in [2] and 19.3 nM in [3].

`Cc1cc2cc(Oc3ccnc(Nc4cccc(CS(=O)(=O)NCCN(C)C)c4)n3)ccc2[nH]1` [sulfatinib]: the IC50 in [4] was 4 nM; in [5] (ADP-Glo, read-out: Kinase inhibitory activity FGFR2^V564F IC50), 2970 nM; in assay [5] (bound stated, read-out: IC50 for FGFR2^V564F), over 2000 nM; in [6] (ADP-Glo, read-out: Kinase inhibitory activity FGFR3^V555M IC50) it was over 5000 nM; in [6] (bound stated, read-out: IC50 for FGFR3^V555M), over 2000 nM; in assay [7] (wild-type kinase domain, ADP-Glo), 889 nM. The IC50 in assay [8] (ADP-Glo, read-out: Kinase inhibitory activity FGFR1^V561M IC50) is over 5000 nM; in [8] (bound stated, read-out: IC50 for FGFR1^V561M), over 2000 nM; in assay [9], 28 nM; in assay [10] (ADP-Glo, read-out: Kinase inhibitory activity FGFR2^V564I IC50), 3490 nM; in assay [10] (bound stated, read-out: IC50 for FGFR2^V564I) it was over 2000 nM; in [11], 5 nM. Besides, the IC50 was found to be 34 nM in assay [12] and 21 nM in [13]. In [7] (FGFR4 IC50 compared with FGFR1), the “reduction in efficacy for FGFR4” value is “approximately 26 fold”.
